Laboratory results reported in US10227344B2, “CK2 inhibitors, compositions and methods thereof” (Polaris Pharmaceuticals, Inc., priority 2016, dated 2019).

Experiments:
Format in all cases: cell-based
MOLT4 = experiment: Cancer cell panel, cell viability (resazurin): Leukemia, MOLT4; details: 72 hours, labelled drug combined with Example 3
EOL-1 = experiment: Cancer cell panel, cell viability (resazurin): Leukemia, EOL-1; details: EOL-1 (Leukemia), 72 hours; labelled drug combined with Example 3
786-O = experiment: Cancer cell panel, cell viability (resazurin): Renal, 786-O; details: 786-O (Renal), 72 hours; labelled drug combined with Example 3
Panc-1 = experiment: Cancer cell panel, cell viability (resazurin): Pancreatic, Panc-1; details: Panc-1 (Pancreatic), 72 hours; labelled drug combined with Example 3
Method: (§1) Cells were plated in 96-well plates and treated for 72 hours with a serially diluted CK2 inhibitor or anti-cancer drug or their combination. The suspension cell lines were treated right after plating, while the adherent cells were allowed to attach overnight prior to the start of the treatment.
(§2) Cell viability was determined by adding resazurin to cell cultures and measuring fluorescence with a plate reader. Relative cell viability was calculated by dividing the cell viability signal from a test sample by that of a non-treated control. […] Bliss Independence and Highest Single Agent models were used to determine if there is synergy, additivity or antagonism between the CK2 inhibitor and an anti-cancer drug.

LoVo = experiment: Cancer cell panel, cell viability (resazurin): Colon, LoVo; details: 72 hours, labelled drug combined with Example 3
PC3 = experiment: Cancer cell panel, cell viability (resazurin): Prostate, PC3; details: 72 hours, labelled drug combined with Example 3
Mia-Paca-2 = experiment: Cancer cell panel, cell viability (resazurin): Pancreatic, Mia-Paca-2; details: Mia-Paca-2 (Pancreatic), 72 hours; labelled drug combined with Example 3
SK-MEL-24 = experiment: Cancer cell panel, cell viability (resazurin): Melanoma, SK-MEL-24; details: SK-MEL-24 (Melanoma), 72 hours; labelled drug combined with Example 3
BxPC3 = experiment: Cancer cell panel, cell viability (resazurin): Pancreatic, BxPC3; details: 72 hours, labelled drug combined with Example 3
A2780 = experiment: Cancer cell panel, cell viability (resazurin): Ovarian, A2780; details: 72 hours, labelled drug combined with Example 3
H2122 = experiment: Cancer cell panel, cell viability (resazurin): NSCLC, H2122; details: 72 hours, labelled drug combined with Example 3
Caki-2 = experiment: Cancer cell panel, cell viability (resazurin): Renal, Caki-2; details: Caki-2 (Renal), 72 hours; labelled drug combined with Example 3
A375 = experiment: Cancer cell panel, cell viability (resazurin): Melanoma, A375; details: 72 hours, labelled drug combined with Example 3
U87MG = experiment: Cancer cell panel, cell viability (resazurin): Glioblastoma, U87MG; details: 72 hours, labelled drug combined with Example 3
Method: as §1, §2

ACHN = experiment: Cancer cell panel, cell viability (resazurin): Renal, ACHN; details: 72 hours, labelled drug combined with Example 3
Method: as §1, §2

SK-MEL-3 = experiment: Cancer cell panel, cell viability (resazurin): Melanoma, SK-MEL-3; details: SK-MEL-3 (Melanoma), 72 hours; labelled drug combined with Example 3
MDA-MB-453 = experiment: Cancer cell panel, cell viability (resazurin): Breast, MDA-MB-453; details: MDA-MB-453 (Breast), 72 hours; labelled drug combined with Example 3
Caki-1 = experiment: Cancer cell panel, cell viability (resazurin): Renal, Caki-1; details: Caki-1 (Renal), 72 hours; labelled drug combined with Example 3
WM-115 = experiment: Cancer cell panel, cell viability (resazurin): Melanoma, WM-115; details: WM-115 (Melanoma), 72 hours; labelled drug combined with Example 3
ZR-75-1 = experiment: Cancer cell panel, cell viability (resazurin): Breast, ZR-75-1; details: ZR-75-1 (Breast), 72 hours; labelled drug combined with Example 3
U266 = experiment: Cancer cell panel, cell viability (resazurin): multiple myeloma, U266; details: 72 hours, labelled drug combined with Example 3
BT-20 = experiment: Cancer cell panel, cell viability (resazurin): Breast, BT-20; details: BT-20 (Breast), 72 hours; labelled drug combined with Example 3
Method: as §1, §2

MDA-MB-157 = experiment: Cancer cell panel, cell viability (resazurin): Breast, MDA-MB-157; details: MDA-MB-157 (Breast), 72 hours; labelled drug combined with Example 3
Caov-3 = experiment: Cancer cell panel, cell viability (resazurin): Ovarian, Caov-3; details: Caov-3 (Ovarian), 72 hours; labelled drug combined with Example 3
LnCap = experiment: Cancer cell panel, cell viability (resazurin): Prostate, LnCap; details: 72 hours, labelled drug combined with Example 3
Method: as §1, §2

Colo205 = experiment: Cancer cell panel, cell viability (resazurin): Colon, Colo205; details: 72 hours, labelled drug combined with Example 3
SkBr-3 = experiment: Cancer cell panel, cell viability (resazurin): Breast, SkBr-3; details: SkBr-3 (Breast), 72 hours; labelled drug combined with Example 3
Method: as §1, §2

DLD-1 = experiment: Cancer cell panel, cell viability (resazurin): Colon, DLD-1; details: DLD-1 (Colon), 72 hours; labelled drug combined with Example 3
Daudi = experiment: Cancer cell panel, cell viability (resazurin): Burkitt's Lymphoma, Daudi; details: 72 hours, labelled drug combined with Example 3
Method: as §1, §2

Raji = experiment: Cancer cell panel, cell viability (resazurin): Burkitt's Lymphoma, Raji; details: 72 hours, labelled drug combined with Example 3
H1975 = experiment: Cancer cell panel, cell viability (resazurin): NSCLC, H1975; details: 72 hours, labelled drug combined with Example 3
HCT116 = experiment: Cancer cell panel, cell viability (resazurin): Colon, HCT116; details: 72 hours, labelled drug combined with Example 3
Method: as §1, §2

H23 = experiment: Cancer cell panel, cell viability (resazurin): NSCLC, H23; details: 72 hours, labelled drug combined with Example 3
Method: as §1, §2

T47D = experiment: Cancer cell panel, cell viability (resazurin): Breast, T47D; details: 72 hours, labelled drug combined with Example 3
MeWO = experiment: Cancer cell panel, cell viability (resazurin): Melanoma, MeWO; details: 72 hours, labelled drug combined with Example 3
NAMALWA = experiment: Cancer cell panel, cell viability (resazurin): Burkitt's Lymphoma, NAMALWA; details: 72 hours, labelled drug combined with Example 3
H460 = experiment: Cancer cell panel, cell viability (resazurin): NSCLC, H460; details: 72 hours, labelled drug combined with Example 3
H1299 = experiment: Cancer cell panel, cell viability (resazurin): NSCLC, H1299; details: 72 hours, labelled drug combined with Example 3
Method: as §1, §2

A549 = experiment: Cancer cell panel, cell viability (resazurin): NSCLC, A549; details: 72 hours, labelled drug combined with Example 3
MDA-MB-231 = experiment: Cancer cell panel, cell viability (resazurin): Breast, MDA-MB-231; details: MDA-MB-231 (Breast), 72 hours; labelled drug combined with Example 3
SKOV-3 = experiment: Cancer cell panel, cell viability (resazurin): Ovarian, SKOV-3; details: SKOV-3 (Ovarian), 72 hours; labelled drug combined with Example 3
HL60 = experiment: Cancer cell panel, cell viability (resazurin): Leukemia, HL60; details: 72 hours, labelled drug combined with Example 3

Structure (SMILES): N.N.[Cl][Pt][Cl] [Cisplatin, cisplatin]
- synergy, additivity or antagonism of the combination of Example 3 with the anti-cancer drug (MOLT4): + + (Slight synergy relative to each agent alone (CI = 0.75-0.9 by Bliss Independence Model))
- synergy, additivity or antagonism of the combination of Example 3 with the anti-cancer drug (EOL-1): + + (Slight synergy relative to each agent alone (CI = 0.75-0.9 by Bliss Independence Model))
- synergy, additivity or antagonism of the combination of Example 3 with the anti-cancer drug (786-O): + + (Slight synergy relative to each agent alone (CI = 0.75-0.9 by Bliss Independence Model))
- synergy, additivity or antagonism of the combination of Example 3 with the anti-cancer drug (Panc-1): + (Additive relative to each agent alone (CI = 0.9-1 by Bliss Independence Model and <0.9 by Highest Single Agent Model))
- synergy, additivity or antagonism of the combination of Example 3 with the anti-cancer drug (LoVo): + + (Slight synergy relative to each agent alone (CI = 0.75-0.9 by Bliss Independence Model))
- synergy, additivity or antagonism of the combination of Example 3 with the anti-cancer drug (PC3): + (Additive relative to each agent alone (CI = 0.9-1 by Bliss Independence Model and <0.9 by Highest Single Agent Model))
- synergy, additivity or antagonism of the combination of Example 3 with the anti-cancer drug (Mia-Paca-2): + (Additive relative to each agent alone (CI = 0.9-1 by Bliss Independence Model and <0.9 by Highest Single Agent Model))
- synergy, additivity or antagonism of the combination of Example 3 with the anti-cancer drug (SK-MEL-24): + + (Slight synergy relative to each agent alone (CI = 0.75-0.9 by Bliss Independence Model))
- synergy, additivity or antagonism of the combination of Example 3 with the anti-cancer drug (BxPC3): + (Additive relative to each agent alone (CI = 0.9-1 by Bliss Independence Model and <0.9 by Highest Single Agent Model))
- synergy, additivity or antagonism of the combination of Example 3 with the anti-cancer drug (A2780): + + + + (Strong synergy relative to each agent alone (CI < 0.4 by Bliss Independence Model))
- synergy, additivity or antagonism of the combination of Example 3 with the anti-cancer drug (H2122): + + (Slight synergy relative to each agent alone (CI = 0.75-0.9 by Bliss Independence Model))
- synergy, additivity or antagonism of the combination of Example 3 with the anti-cancer drug (Caki-2): + (Additive relative to each agent alone (CI = 0.9-1 by Bliss Independence Model and <0.9 by Highest Single Agent Model))
- synergy, additivity or antagonism of the combination of Example 3 with the anti-cancer drug (A375): + + (Slight synergy relative to each agent alone (CI = 0.75-0.9 by Bliss Independence Model))
- synergy, additivity or antagonism of the combination of Example 3 with the anti-cancer drug (U87MG): + (Additive relative to each agent alone (CI = 0.9-1 by Bliss Independence Model and <0.9 by Highest Single Agent Model))
- synergy, additivity or antagonism of the combination of Example 3 with the anti-cancer drug (ACHN): + (Additive relative to each agent alone (CI = 0.9-1 by Bliss Independence Model and <0.9 by Highest Single Agent Model))
- synergy, additivity or antagonism of the combination of Example 3 with the anti-cancer drug (SK-MEL-3): + (Additive relative to each agent alone (CI = 0.9-1 by Bliss Independence Model and <0.9 by Highest Single Agent Model))
- synergy, additivity or antagonism of the combination of Example 3 with the anti-cancer drug (MDA-MB-453): + + (Slight synergy relative to each agent alone (CI = 0.75-0.9 by Bliss Independence Model))
- synergy, additivity or antagonism of the combination of Example 3 with the anti-cancer drug (Caki-1): + (Additive relative to each agent alone (CI = 0.9-1 by Bliss Independence Model and <0.9 by Highest Single Agent Model))
- synergy, additivity or antagonism of the combination of Example 3 with the anti-cancer drug (WM-115): + + (Slight synergy relative to each agent alone (CI = 0.75-0.9 by Bliss Independence Model))
- synergy, additivity or antagonism of the combination of Example 3 with the anti-cancer drug (ZR-75-1): + (Additive relative to each agent alone (CI = 0.9-1 by Bliss Independence Model and <0.9 by Highest Single Agent Model))
- synergy, additivity or antagonism of the combination of Example 3 with the anti-cancer drug (U266): + (Additive relative to each agent alone (CI = 0.9-1 by Bliss Independence Model and <0.9 by Highest Single Agent Model))
- synergy, additivity or antagonism of the combination of Example 3 with the anti-cancer drug (BT-20): + + (Slight synergy relative to each agent alone (CI = 0.75-0.9 by Bliss Independence Model))
- synergy, additivity or antagonism of the combination of Example 3 with the anti-cancer drug (MDA-MB-157): + + + (Synergy relative to each agent alone (CI = 0.4-0.74 by Bliss Independence Model))
- synergy, additivity or antagonism of the combination of Example 3 with the anti-cancer drug (Caov-3): + (Additive relative to each agent alone (CI = 0.9-1 by Bliss Independence Model and <0.9 by Highest Single Agent Model))
- synergy, additivity or antagonism of the combination of Example 3 with the anti-cancer drug (LnCap): + + (Slight synergy relative to each agent alone (CI = 0.75-0.9 by Bliss Independence Model))
- synergy, additivity or antagonism of the combination of Example 3 with the anti-cancer drug (Colo205): + + (Slight synergy relative to each agent alone (CI = 0.75-0.9 by Bliss Independence Model))
- synergy, additivity or antagonism of the combination of Example 3 with the anti-cancer drug (SkBr-3): + + (Slight synergy relative to each agent alone (CI = 0.75-0.9 by Bliss Independence Model))
- synergy, additivity or antagonism of the combination of Example 3 with the anti-cancer drug (DLD-1): + (Additive relative to each agent alone (CI = 0.9-1 by Bliss Independence Model and <0.9 by Highest Single Agent Model))
- synergy, additivity or antagonism of the combination of Example 3 with the anti-cancer drug (Daudi): + (Additive relative to each agent alone (CI = 0.9-1 by Bliss Independence Model and <0.9 by Highest Single Agent Model))
- synergy, additivity or antagonism of the combination of Example 3 with the anti-cancer drug (Raji): + + (Slight synergy relative to each agent alone (CI = 0.75-0.9 by Bliss Independence Model))
- synergy, additivity or antagonism of the combination of Example 3 with the anti-cancer drug (H1975): + (Additive relative to each agent alone (CI = 0.9-1 by Bliss Independence Model and <0.9 by Highest Single Agent Model))
- synergy, additivity or antagonism of the combination of Example 3 with the anti-cancer drug (HCT116): + (Additive relative to each agent alone (CI = 0.9-1 by Bliss Independence Model and <0.9 by Highest Single Agent Model))
- synergy, additivity or antagonism of the combination of Example 3 with the anti-cancer drug (H23): + + + (Synergy relative to each agent alone (CI = 0.4-0.74 by Bliss Independence Model))
- synergy, additivity or antagonism of the combination of Example 3 with the anti-cancer drug (T47D): + (Additive relative to each agent alone (CI = 0.9-1 by Bliss Independence Model and <0.9 by Highest Single Agent Model))
- synergy, additivity or antagonism of the combination of Example 3 with the anti-cancer drug (MeWO): + (Additive relative to each agent alone (CI = 0.9-1 by Bliss Independence Model and <0.9 by Highest Single Agent Model))
- synergy, additivity or antagonism of the combination of Example 3 with the anti-cancer drug (NAMALWA): + (Additive relative to each agent alone (CI = 0.9-1 by Bliss Independence Model and <0.9 by Highest Single Agent Model))
- synergy, additivity or antagonism of the combination of Example 3 with the anti-cancer drug (H460): + + (Slight synergy relative to each agent alone (CI = 0.75-0.9 by Bliss Independence Model))
- synergy, additivity or antagonism of the combination of Example 3 with the anti-cancer drug (H1299): + (Additive relative to each agent alone (CI = 0.9-1 by Bliss Independence Model and <0.9 by Highest Single Agent Model))
- synergy, additivity or antagonism of the combination of Example 3 with the anti-cancer drug (A549): + + + + (Strong synergy relative to each agent alone (CI < 0.4 by Bliss Independence Model))
- synergy, additivity or antagonism of the combination of Example 3 with the anti-cancer drug (MDA-MB-231): + (Additive relative to each agent alone (CI = 0.9-1 by Bliss Independence Model and <0.9 by Highest Single Agent Model))
- synergy, additivity or antagonism of the combination of Example 3 with the anti-cancer drug (SKOV-3): + (Additive relative to each agent alone (CI = 0.9-1 by Bliss Independence Model and <0.9 by Highest Single Agent Model))
- synergy, additivity or antagonism of the combination of Example 3 with the anti-cancer drug (HL60): + (Additive relative to each agent alone (CI = 0.9-1 by Bliss Independence Model and <0.9 by Highest Single Agent Model))
